Experiments:
[1] = In vitro DMPK: rat predicted hepatic clearance; assay type: in vitro ADME
Procedure: (§1) Compound 1 was tested in several in vitro assays to investigate both metabolism and pharmacokinetics. These assays were performed according to known methods as generally described in the following references: Conde-Ceide et al. ACS Med. Chem. Lett. 2015, 6, 716-720; Morris et al. J. Med. Chem. 2014, 57, 10192-10197; and Bubser et al. ACS Chem. Neurosci. 2014, 5, 920-942.

[2] = In vitro DMPK: rat fraction unbound in plasma; assay type: in vitro ADME; settings: read-out: Rat Fu (plasma)
Procedure: as §1

[3] = biological target: T1, Human M4 (Homo sapiens, UniProt P08173); assay: mAChR M4 cell-based functional assay (calcium flux, potentiation of ACh EC20 response); parameters: Emax: dose or concentration left out as unconfirmed
T1 sequence (P08173 1-479): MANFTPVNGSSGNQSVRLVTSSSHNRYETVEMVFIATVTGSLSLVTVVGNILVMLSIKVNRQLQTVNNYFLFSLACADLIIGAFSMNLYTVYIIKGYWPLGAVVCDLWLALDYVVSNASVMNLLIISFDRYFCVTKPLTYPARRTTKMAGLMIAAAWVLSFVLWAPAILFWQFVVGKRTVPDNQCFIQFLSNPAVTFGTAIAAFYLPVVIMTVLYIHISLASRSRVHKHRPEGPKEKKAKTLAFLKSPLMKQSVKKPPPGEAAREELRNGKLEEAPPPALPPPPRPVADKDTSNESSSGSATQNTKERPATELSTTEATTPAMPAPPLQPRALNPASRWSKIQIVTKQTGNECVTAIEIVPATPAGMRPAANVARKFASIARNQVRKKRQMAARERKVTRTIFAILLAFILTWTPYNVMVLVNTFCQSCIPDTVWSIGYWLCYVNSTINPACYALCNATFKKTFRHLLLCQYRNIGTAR

[4] = In vitro DMPK: human predicted hepatic clearance; assay type: in vitro ADME
Procedure: as §1

[5] = In vitro DMPK: rat fraction unbound in brain; assay type: in vitro ADME; settings: read-out: Rat Fu (brain)
Procedure: as §1

[6] = In vitro DMPK: human fraction unbound in plasma; assay type: in vitro ADME; settings: read-out: Human Fu (plasma)
Procedure: as §1

[7] = In vivo DMPK in rat (plasma clearance, brain:plasma distribution); settings: read-out: Rat CLp
[8] = human, in vivo; cited from earlier work
[9] = without causing catalepsy; cited from earlier work
[10] = Alzheimer's disease patients; delusions, suspiciousness, vocal outbursts, hallucinations; cited from earlier work

Cc1c(C(F)F)nnc2sc3c(NCc4ccc(C(C)(C)O)cc4)ncnc3c12 [Compound 1, 2-(4-(((3-(Difluoromethyl)-4-methylpyrimido[4′,5′:4,5]thieno[2,3-c]pyridazin-8-yl)amino)methyl)phenyl)propan-2-ol]
Rat Predicted CLhep (mL/min/kg) Method A [1]: 19.1 mL/min/kg | fraction unbound [2]: 0.012 | Emax [3]: 98.7% | Human Predicted CLhep (mL/min/kg) Method A ([4]; Method A (first line)): 6.69 mL/min/kg | Human Predicted CLhep (mL/min/kg) Method A ([4]; second line also printed as Method A): 0.34 mL/min/kg | fraction unbound [5]: 0.006 | fraction unbound [6]: 0.01 | clearance [7]: 2.67 mL/min/kg

COc1ccc(CNc2ncnc3c2sc2nnc(C(F)F)c(C)c23)cc1F [Compound 2, 3-(difluoromethyl)-N-(3-fluoro-4-methoxybenzyl)-4-methylpyrimido[4′,5′:4,5]thieno[2,3-c]pyridazin-8-amine]
EC50 [3]: 581 nM | Emax [3]: 79.8%

Cc1c(C(F)F)nnc2sc3c(N4CCCC4)ncnc3c12 [Compound 3, 3-(difluoromethyl)-4-methyl-8-(pyrrolidin-1-yl)pyrimido[4′,5′:4,5]thieno[2,3-c]pyridazine]
EC50 [3]: 238 nM | Emax [3]: 83.5%

Cc1c(C(F)F)nnc2sc3c(N4CC5(COC5)C4)ncnc3c12 [Compound 4, 6-(3-(difluoromethyl)-4-methylpyrimido[4′,5′:4,5]thieno[2,3-c]pyridazin-8-yl)-2-oxa-6-azaspiro[3.3]heptane]
EC50 [3]: 84.1 nM | Emax [3]: 82.7%

Cc1c(C(F)F)nnc2sc3c(N4CC(CO)(CO)C4)ncnc3c12 [Compound 5, (1-(3-(difluoromethyl)-4-methylpyrimido[4′,5′:4,5]thieno[2,3-c]pyridazin-8-yl)azetidine-3,3-diyl)dimethanol]
EC50 [3]: 1060 nM | Emax [3]: 81.9%

Cc1c(C(F)F)nnc2sc3c(N4CCOCC4)ncnc3c12 [Compound 6, 4-(3-(difluoromethyl)-4-methylpyrimido[4′,5′:4,5]thieno[2,3-c]pyridazin-8-yl)morpholine]
EC50 [3]: 572 nM | Emax [3]: 72.2%

Cc1c(C(F)F)nnc2sc3c(NC4CCCC4)ncnc3c12 [Compound 7, N-cyclopentyl-3-(difluoromethyl)-4-methylpyrimido[4′,5′:4,5]thieno[2,3-c]pyridazin-8-amine]
EC50 [3]: 271 nM | Emax [3]: 95.4%

[2H]C([2H])(Nc1ncnc2c1sc1nnc(C(F)F)c(C)c12)c1ccc(C(C)(C)O)cc1 [Compound 8, 2-(4-(((3-(difluoromethyl)-4-methylpyrimido[4′,5′:4,5]thieno[2,3-c]pyridazin-8-yl)amino)methyl-d2)phenyl)propan-2-ol]
EC50 [3]: 528 nM | Emax [3]: 95.8%

Cc1c(C(F)F)nnc2sc3c(NCc4ccc(C5(O)CCC5)cc4)ncnc3c12 [Compound 9, 1-(4-(((3-(difluoromethyl)-4-methylpyrimido[4′,5′:4,5]thieno[2,3-c]pyridazin-8-yl)amino)methyl)phenyl)cyclobutan-1-ol]
EC50 [3]: 809 nM | Emax [3]: 95.5%

Cc1c(C(F)F)nnc2sc3c(NCc4ccc(C(C)(O)C5CC5)cc4)ncnc3c12 (stereo not shown) [Compound 10, 1-cyclopropyl-1-(4-(((3-(difluoromethyl)-4-methylpyrimido[4′,5′:4,5]thieno[2,3-c]pyridazin-8-yl)amino)methyl)phenyl)ethan-1-ol]
EC50 [3]: 860 nM | Emax [3]: 95.5%

Cc1ccccc1OC1CCN(c2ncnc3c2sc2nnc(C(F)F)c(C)c23)C1 (stereo not shown) [Compound 11, 3-(difluoromethyl)-4-methyl-8-(3-(o-tolyloxy)pyrrolidin-1-yl)pyrimido[4′,5′:4,5]thieno[2,3-c]pyridazine]
EC50 [3]: > 10000 nM | Emax [3]: 68.7%

Nc1c2c(nc3ccccc13)CCCC2 [tacrine]
patients with elevated liver transaminases (hepatotoxicity) [8]: about 30%

CCCCCCOc1nsnc1C1=CCCN(C)C1 [xanomeline]
activity in animal models with profiles similar to known antipsychotic drugs [9]: active in animal models | effect on psychotic behavioral symptoms [10]: reduce psychotic behavioral symptoms

From patent US11376254B2, “Positive allosteric modulators of the muscarinic acetylcholine receptor M4” (Vanderbilt University, priority 2017, dated 2022)
